Measurements taken from patent US20030027867A1, “Use of R-NSAID compounds for anti-HIV treatment” (Myriad Genetics, Incorporated, priority 2001, published 2003).
pIC50: −log10 of the molar value.

Legend:
HIV-1 [1] = experiment: microbe, parasite or virus in culture; details: Human immunodeficiency virus 1, PBMC, 168 h
Protocol: (§1) R-flurbiprofen was supplied in powder form from Catalytica Pharmaceutical Inc., Greenville, N.C. and was solubilized in DMSO to yield a 200 mM stock solution. For these studies, the compound was tested at a high-test concentration of 1000 μM along with eight serial half-logarithmic dilutions (1000 μM down to 0.01 μM). AZT was used as a positive control antiviral compound.
(§2) Fresh human blood was obtained commercially from Interstate Blood Bank, Inc. (Memphis, Tenn.). […] The laboratory-adapted HIV-1IIIB strain was propagated and tittered in fresh human PBMCs; pre-titered aliquots of HIV-1ROJO and Hiv-1IIIB were removed from the freezer (−80° C.) and thawed rapidly to room temperature in a biological safety cabinet immediately before use. Phytohemagglutinin (PHA-P) was obtained from Sigma (St. Louis, Mo.) and recombinant IL-2 was obtained from Amgen (San Francisco, Calif.).
(§3) Fresh human PBMCs were isolated from screened donors, seronegative for HIV and HBV. Leukophoresed blood was diluted 1:1 with Dulbecco's phosphate buffered saline (PBS), layered over 14 mL of Ficoll-Hypaque density gradient in a 50 mL centrifuge tube and then centrifuged for 30 minutes at 600×g. Banded PBMCs were aspirated from the resulting interface and subsequently washed 2× with PBS by low speed centrifugation. After the final wash, cells were enumerated by trypan blue exclusion and re-suspended at 1×10^7 cells/mL in RPMI 1640 supplemented with 15% Fetal Bovine Serum (FBS), 2 mM L-glutamine, 4 μg/mL PHA-P. The cells were allowed to incubate for 48-72 hours at 37° C. After incubation, PBMCs were centrifuged and reset in RPMI 1640 with 15% FBS, 2 mM L-glutamine, 100 U/ml penicillin, 100 μg/mL streptomycin, 10 μg/mL gentamycin, and 20 U/mL recombinant human IL-2. PBMCs were maintained in this medium at a concentration of 1-2×10^6 cells/mL with biweekly medium changes until used in the assay protocol.
(§4) For the standard PBMC assay, PHA-P stimulated cells from at least two normal donors were pooled, diluted in fresh medium to a final concentration of 1×10^6 cells/mL, and plated in the interior wells of 96 well round bottom microplate at 50 μL/well (5×10^4 cells/well). Test drug dilutions were prepared at a 2× concentration in microtiter tubes and 100 μL of each concentration was placed in appropriate wells in a standard format. 50 μL of a predetermined dilution of virus stock was placed in each test well (final MOI ≈0.1). Wells with cells and virus alone were used for virus control. Separate plates were prepared identically without virus for drug cytotoxicity studies using an XTT assay system. The PBMC cultures were maintained for seven days following infection, at which time cell-free supernate samples were collected and assayed for reverse transcriptase activity as described below. […]

in vitro = type: cell-based; details: human
Protocol: At assay termination the assay plates were stained with the soluble tetrazolium-based dye MTS (CellTiter Reagent, Promega) to determine cell viability and quantify compound toxicity. MTS is metabolized by the mitochondria enzymes of metabolically active cells to yield a soluble formazan product, allowing the rapid quantitative analysis cell viability and compound cytotoxicity. […] At termination of the assay, 20 μl of MTS reagent was added per well. The wells were incubated overnight for the HIV cytoprotection assay at 37° C. The incubation intervals were chosen based on empirically determined times for optimal dye reduction in each cell type. Adhesive plate sealers were used in place of the lids, the sealed plate was inverted several times to mix the soluble formazan product and the plate was read spectrophotometrically at 490 nm with a Molecular Devices Vmax plate reader.

HIV-1 [2] = details: TC50/IC50 in human PBMCs
Protocol: as §1, §2, §3, §4

Compound	pIC50 (HIV-1 [1])	CC50 at 7 days (in vitro) [µM]	Therapeutic Index (HIV-1 [2])
Cc1cn([C@H]2C[C@H](N=[N+]=[N-])[C@@H](CO)O2)c(=O)[nH]c1=O [AZT, 3′-Azido-3′-deoxythymidine]	8.00	> 4	>400.00
CC(C(=O)O)c1ccc(-c2ccccc2)c(F)c1 (stereo not drawn) [R-flurbiprofen, 3-fluoro-4-phenylhydratropic acid]	3.62	731	3.1
